Laboratory results reported in US7304058B2, “Carbamic acid esters of benzothiazoles” (Hoffmann-La Roche Inc., priority 2003, dated 2007).

Assays:
[1] = target: T1, human adenosine A2A receptor (Homo sapiens, UniProt P29274); test: [3H]-SCH-58261 binding assay, human adenosine A2A receptor; details: [3H]-SCH-58261 1 nM; membranes of CHO cells expressing the recombinant receptor; Ki by Cheng-Prussoff; read-out: hA2 (pKi) (converted)
T1 construct: expressed in transfected cells; host or cells: CHO cells, Semliki Forest virus expression system; membrane preparation
Experimental: Human Adenosine A2A Receptor
The human adenosine A2A receptor was recombinantly expressed in Chinese hamster ovary (CHO) cells using the semliki forest virus expression system. Cells were harvested, washed twice by centrifugation, homogenized and again washed by centrifugation. The final washed membrane pellet was suspended in a Tris (50 mM) buffer containing 120 mM NaCl, 5 mM KCl, 2 mM CaCl2 and 10 mM MgCl2 (pH 7.4) (buffer A). The [^3H]-SCH-58261 (Dionisotti et al., 1997, Br J Pharmacol 121, 353; 1 nM) binding assay was carried out in 96-well plates in the presence of 2.5 μg of membrane protein, 0.5 mg of Ysi-poly-1-lysine SPA beads and 0.1 U adenosine deaminase in a final volume of 200 μl of buffer A. Non-specific binding was defined using xanthine amine congener (XAC; 2 μM). Compounds were tested at 10 concentrations from 10 μM-0.3 nM. All assays were conducted in duplicate and repeated at least two times. Assay plates were incubated for 1 hour at room temperature before centrifugation and then bound ligand determined using a Packard Topcount scintillation counter. IC50 values were calculated using a non-linear curve fitting program and Ki values calculated using the Cheng-Prussoff equation.

T1 sequence (P29274 whole entry): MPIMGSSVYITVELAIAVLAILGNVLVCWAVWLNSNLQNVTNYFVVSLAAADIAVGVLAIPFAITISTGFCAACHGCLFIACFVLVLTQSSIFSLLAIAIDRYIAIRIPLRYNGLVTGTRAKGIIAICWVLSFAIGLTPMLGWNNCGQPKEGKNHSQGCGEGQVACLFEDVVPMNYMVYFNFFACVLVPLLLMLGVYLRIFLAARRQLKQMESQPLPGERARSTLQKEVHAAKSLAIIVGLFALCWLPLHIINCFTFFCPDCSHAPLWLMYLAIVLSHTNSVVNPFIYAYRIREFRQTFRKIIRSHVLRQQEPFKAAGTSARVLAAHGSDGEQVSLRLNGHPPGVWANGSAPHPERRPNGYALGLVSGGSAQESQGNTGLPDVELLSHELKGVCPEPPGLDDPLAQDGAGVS

Row | Ki [1] [nM] | melting point [°C] | Compound
1 | 6.31 | 176 to 179 | COc1ccc(N2CCOCC2)c2sc(NC(=O)O[C@H]3CC[C@H](O)CC3)nc12 [Example 6, (tran)s-(4-Methoxy-7-morpholin-4-yl-benzothiazol-2-yl)-carbamic acid 4-hydroxy-cyclohexyl ester]
2 | 3.98 | 193 to 194 | COc1ccc(N2CCOCC2)c2sc(NC(=O)OC3CC4CC3CC4O)nc12 (racemic) [Example 9, (rac)-(exo,exo)-(4-Methoxy-7-morpholin-4-yl-benzothiazol-2-yl)-carbamic acid 5-hydroxy-bicyclo[2.2.1]hept-2-yl ester]
3 | 15.8 | 188 to 189 | COc1ccc(N2CCOCC2)c2sc(NC(=O)OC3CCC(O)C3)nc12 (mixture of isomers) [Example 11, (cis/trans)-(4-Methoxy-7-morpholin-4-yl-benzothiazol-2-yl)-carbamic acid 3-hydroxy-cyclopentyl ester]
4 | 7.94 | 187 to 188 | COc1ccc(N2CCOCC2)c2sc(NC(=O)OC3CCOCC3)nc12 [Example 8, (4-Methoxy-7-morpholin-4-yl-benzothiazol-2-yl)-carbamic acid tetrahydro-pyran-4-yl ester]
5 | 10 | 204 to 206 | COc1ccc(N2CCOCC2)c2sc(NC(=O)O[C@H]3CC[C@@H](O)CC3)nc12 [Example 7, (cis)-(4-Methoxy-7-morpholin-4-yl-benzothiazol-2-yl)-carbamic acid 4-hydroxy-cydohexyl ester]
6 | 7.94 | 177 to 179 | COc1ccc(N2CCOCC2)c2sc(NC(=O)OC3CCCCC3)nc12 [Example 5, (4-Methoxy-7-morpholin-4-yl-benzothiazol-2-yl)-carbamic acid cyclohexyl ester]
7 | 25.1 | 198 to 200 | COc1ccc(N2CCOCC2)c2sc(NC(=O)O[C@@H]3CCOC3)nc12 [Example 10, (R)-(4-Methoxy-7-morpholin-4-yl-benzothiazol-2-yl)-carbamic acid tetrahydro-furan-3-yl ester]

More lines, now with the values behind:

Row | Compound | Ki [1] [nM] | melting point [°C]
8 | COCCOC(=O)Nc1nc2c(OC)ccc(N3CCOCC3)c2s1 [Example 3, (4-Methoxy-7-morpholin-4-yl-benzothiazol-2-yl)-carbamic acid 2-methoxy-ethyl ester] | 12.6 | 149 to 152
9 | COc1ccc(C2CCOCC2)c2sc(NC(=O)O[C@H]3CCOC3)nc12 [Example 13, [4-Methoxy-7-(tetrahydro-pyran-4-yl)-benzothiazol-2-yl]-carbamic acid (S)-(tetrahydro-furan-3-yl) ester] | 3.98 | 195 to 200
10 | COc1ccc(C2CCOCC2)c2sc(NC(=O)O[C@H]3CC[C@H](O)CC3)nc12 [Example 1, (trans)-[4-Methoxy-7-(tetrahydro-pyran-4-yl)-benzothiazol-2-yl]-carbamic acid 4-hydroxy-cyclohexyl ester] | 2 | 282 to 284
11 | COc1ccc(C2CCOCC2)c2sc(NC(=O)OCC3CCCO3)nc12 (centres unmarked) [Example 12, [4-Methoxy-7-(tetrahydro-pyran-4-yl)-benzothiazol-2-yl]-carbamic acid tetrahydro-furan-2-ylmethyl ester] | 12.6 | 175 to 180
12 | COc1ccc(N2CCOCC2)c2sc(NC(=O)OCC(C)C)nc12 [Example 4, (4-Methoxy-7-morpholin-4-yl-benzothiazol-2-yl)-carbamic acid isobutyl ester] | 25.1 | 164 to 168
13 | CCOC(=O)Nc1nc2c(OC)ccc(C3CCOCC3)c2s1 [Example 2, [4-Methoxy-7-(tetrahydro-pyran-4-yl)-benzothiazol-2-yl]-carbamic acid ethyl ester] | 5.01 | 170 to 174
